Each structure is given as a SMILES string. Positions count from the first letter of the chain named.

In assay [1] the target is T1, GPR139 (Homo sapiens, UniProt Q6DWJ6).
T1 construct: host or cells: CHO-k1
T1 sequence (Q6DWJ6 1-353): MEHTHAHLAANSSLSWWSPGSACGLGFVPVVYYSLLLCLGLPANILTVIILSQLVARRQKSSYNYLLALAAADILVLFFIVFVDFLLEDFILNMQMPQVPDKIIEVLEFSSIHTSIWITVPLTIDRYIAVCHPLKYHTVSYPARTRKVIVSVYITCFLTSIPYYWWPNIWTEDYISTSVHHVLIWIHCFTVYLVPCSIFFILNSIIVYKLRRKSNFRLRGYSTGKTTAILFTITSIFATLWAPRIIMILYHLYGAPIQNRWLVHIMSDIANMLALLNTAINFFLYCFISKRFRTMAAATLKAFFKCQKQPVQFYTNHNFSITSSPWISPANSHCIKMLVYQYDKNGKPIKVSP
As to the kind of experiment: Phospho-ERK1/2 HTRF assay in CHO-GPR139 cells. Type of assay: cell-based. To be noted: ERK phosphorylation. As for the experimental part: All compounds were tested on a CHO-k1 cell line stably expressing GPR139 (CHO-GPR139)[11] kindly provided by H. Lundbeck A/S, Denmark. GPR139-specific responses were assessed using a CHO-k1 cell line stably expressing the muscarinic acetylcholine receptor M1 (CHO-M1) (The Missouri S&T cDNA Resource Center, # CEM100TN00).
Phospho-ERK measurements were made using the Advanced Phospho-ERK1/2 (Thr202/Tyr204) HTRF kit by Cisbio (Codolet, France). Approximately 24 hours prior to the experiment, CHO-GPR139 cells were plated at 50,000 cells/well onto a 96-well plate and cultured as detailed above. Approximately 6 hours later, the media was aspirated, replaced with 50 μL serum-free media, and the cells were allowed to serum starve overnight. The day of the experiment, serial dilutions of the test compounds and controls were made in serum-free media at 2x final concentration. 50 μL of test compounds were added directly to the appropriate wells for 5 minute stimulation at 37 °C. At this point, the media and compounds were rapidly aspirated, lysis/blocking buffer was added, and cells were lysed on a shaker for 30 minutes at room temperature.
The Ca^2+ and ERK responses were normalized as indicated and the concentration response curves were fitted by Prism 6 software (GraphPad) using nonlinear regression in a sigmoidal model with variable slope, as has been previously described.
A general note: Time-resolved FRET reads energy transfer from a long-lived donor to a nearby acceptor.

In assay [2] the target is T2, GPR139 F109A^3×33 (Homo sapiens, UniProt Q6DWJ6, F109A).
T2 construct: myc (N); expressed in transfected cells
T2 sequence (Q6DWJ6 1-353 F109A): T1 sequence (Q6DWJ6 1-353) with F109A
As to the kind of experiment: Ca2+ mobilization on GPR139 mutant F109A. Type of assay: cell-based. The method, then: Figure 4 Ca^2+ mobilization concentration-response curves of AC4 on GPR139 wild-type (WT) and mutants. Data is shown from a representative experiment (mean ± S.D.) out of three independent experiments performed in duplicate. Data is normalized to the Ca^2+ response of buffer (0%) and 100 μM AC4 (100%) on myc-GPR139(WT). Residue numbering in superscript is according to GPCRdb numbering system.
The mutational studies were performed as previously described.
Background: Calcium assays in cells follow changes in intracellular calcium, usually with a dye or a luminescent sensor.

In the case of `O=C(O)C1CC=CCC1c1nnc(CSc2ccc(Cl)cc2)o1` (stereo not drawn) [AC4], the EC50 in assay [1] (CHO-GPR139 cells, read-out: pEC50 ± SEM (converted)) is 178 nM. The Emax (in general, the greatest response seen or fitted, relative to the assay's reference) in assay [1] (expressed relative to FBS positive control) turned out to be 77.2 ± 6.53%. Besides, in assay [2], the “Ca2+ response” value is recorded as “no measurable Ca^2+ response”.
